From patent US7148194B2, “Method to increase fibronectin” (Kimberly-Clark Worldwide, Inc., priority 2002, dated 2006) come the findings set out here.

Molecules are shown by their SMILES. “Also recorded” adds a separate entry of the source.

In one data set the test system is neutrophils. The data set can be described thus: neutrophil migration assay, transwell plate. Format: cell-based, human. As to conditions: for Percent Neutrophil Migration exp. 1: 0.4% HSA; for Percent Neutrophil Migration exp. 2: 0.04% HSA. How it is done:
Peptides were synthesized and purified by the Microchemical Facility at Emory University or by SigmaGenesis. All peptides were analyzed by mass spectrometry after HPLC to assess purity. Approximately 0.5–2.0 milligrams of peptide were used to make fresh stock solutions (5 mg/mL in HBSS/HSA) for each migration assay. The peptide stock solutions were used to make more dilute solutions (1 mg/mL, 100 μg/mL, 10 μg/mL, 1 μg/mL, 100 ng/mL, and 10 ng/mL) in HBSS/HSA for the assays.
Neutrophils were isolated from human blood (collected in Vacutainer™ tubes containing EDTA) by layering the blood/EDTA mixture (about 20 mL) on top of two layers of Histopaque™ 1119 (bottom layer, 18 mL) and 1077 (top layer, 7 mL) in 50 mL Falcon tubes. The tubes were centrifuged at 1800 rpm for 30 minutes (no brake). Four layers appeared in the tubes after the spin (from top to bottom layers): plasma, 1077, 1119, and red blood cells. The buffy coat between the plasma and 1077 layers contained lymphocytes, monocytes, and some platelets. The plasma layer, the buffy coat, and most of the 1077 layer was removed and discarded. The 1119 layer that contained the neutrophils was removed and was placed into a clean 50 mL tube. Dulbecco's Phosphate Buffered Saline (DPBS) was added to bring the volume to 50 mL. The cells were centrifuged for 15 minutes at 2100 rpm. The cells were resuspended in 10 mL of DPBS, transferred to 15 mL tubes, and centrifuged again for 10 minutes at 2000 rpm. This process was repeated to wash the cells a second time. After the supernatant was removed, the red blood cells were lysed by adding 6 mL of cold sterile water to each 15 mL of supernatant. Cells were mixed in the water for only 30 seconds. Six mL of cold 2% sterile saline was then added. Cells were centrifuged again for 10 minutes at 2000 rpm. The red supernatant (containing hemoglobin from red blood cells) was removed. This process of red blood cell lysis was repeated two more times to remove all of the red blood cells. After most of the red blood cells were removed, neutrophils were resuspended in 10 mL of HBSS/HSA for counting with trypan blue.
A neutrophil migration assay was performed in duplicate using a 24-well transwell plate (3 μm pore size for membrane). Transwell membranes were pre-moistened with 20–40 μL of HBSS/HSA (0.04–0.4%). Chemotactic solutions (500 μL) were added to the bottom of each well. […] Transwells were then placed into the chemotactic solutions. The plate was placed into the incubator (37° C., 5% CO2) for one hour. Cells that migrated through the membrane were counted using trypan blue.
In the neutrophil migration experiments, neutrophils that were isolated were approximately 95% viable. […]

In another data set the test system is EpiDerm skin model. The data set can be described thus: viability assay (MTT) in EpiDerm skin model. Type of data set: cell-based. As to conditions: peptide at 500 μM and 2 mM, relative to PBS control. How it is done:
The sample containers were transferred to 6 well plates that contained fresh media. All peptides were dissolved in PBS at a final concentration of 10 mM, and 100 μL each peptide solution was pipetted onto the surface of the Epiderm sample container. Incubation was continued for 12 hours at 37° C., 5% CO2. After the incubation period, the sample containers were washed three times with PBS and the sample containers were transferred to a 24 well plate that contained 300 μL of MTT assay media per well (MTT concentration was 1 mg/mL). The colorimetric assay was allowed to develop for three hours (incubation at 37° C., 5% CO2). Sample containers were then transferred to a 24 well culture plate that contained 2 mL of isopropanol per well. Extraction of the colored precipitate occurred over a period of four hours at room temperature. Absorbance readings were taken at 570 nm and 650 nm for each sample. The percent viability of each sample relative to a PBS control was calculated as: 100×(OD570^sam−OD650^sam)/(OD570^con−OD650^con) (6) Routinely, the peptide sample was assayed in triplicate. Results

The target in a further data set is pro-MMP-9 (Homo sapiens, UniProt P14780). The data set can be described thus: anti-activation (splicing) assay: conversion of pro-MMP-9 by stromilysin, HPLC. Type of data set: biochemical. The settings on record: pro-MMP-9 with stromilysin, micromolar 19-mer. As for the experimental part: The assay measured how much proenzyme was converted into mature matrix metalloproteinase. Proenzyme pro-MMP-9 (100 μg) was mixed with 0.5 μg of stromilysin in PBS. The reaction was incubated at 35° C. Aliquots were removed from the reaction over an 80-minute time course. […] The zero (injection) time point was a single peak that eluted from the column in approximately 750 seconds. This peak reduced in size as a function of time, and two new peaks appeared. The first peak eluted at approximately 800 seconds, and represents the mature form of MMP-9. The second peak eluted at approximately 1100 seconds, and corresponds to the N-terminal pro-domain fragment. Peak areas were determined by integrating over the elution profile, and the percent area changes were plotted.
The first peak, eluting at approximately 700 seconds, is pro-MMP-9. As the splicing reaction proceeds, this peak decreases in intensity (as marked with the downwards arrow), and two new peaks appear. The first new peak, eluting at approximately 800 seconds, is mature and active MMP-9. The second new peak, eluting at approximately 1050 seconds, is the prodomain. As the splicing reaction proceeds, the intensity of these two peaks increases (as marked with the upwards arrows). When the reaction is complete, there is no detectable pro-MMP-9 remaining.

Sequence of pro-MMP-9 (P14780 20-707): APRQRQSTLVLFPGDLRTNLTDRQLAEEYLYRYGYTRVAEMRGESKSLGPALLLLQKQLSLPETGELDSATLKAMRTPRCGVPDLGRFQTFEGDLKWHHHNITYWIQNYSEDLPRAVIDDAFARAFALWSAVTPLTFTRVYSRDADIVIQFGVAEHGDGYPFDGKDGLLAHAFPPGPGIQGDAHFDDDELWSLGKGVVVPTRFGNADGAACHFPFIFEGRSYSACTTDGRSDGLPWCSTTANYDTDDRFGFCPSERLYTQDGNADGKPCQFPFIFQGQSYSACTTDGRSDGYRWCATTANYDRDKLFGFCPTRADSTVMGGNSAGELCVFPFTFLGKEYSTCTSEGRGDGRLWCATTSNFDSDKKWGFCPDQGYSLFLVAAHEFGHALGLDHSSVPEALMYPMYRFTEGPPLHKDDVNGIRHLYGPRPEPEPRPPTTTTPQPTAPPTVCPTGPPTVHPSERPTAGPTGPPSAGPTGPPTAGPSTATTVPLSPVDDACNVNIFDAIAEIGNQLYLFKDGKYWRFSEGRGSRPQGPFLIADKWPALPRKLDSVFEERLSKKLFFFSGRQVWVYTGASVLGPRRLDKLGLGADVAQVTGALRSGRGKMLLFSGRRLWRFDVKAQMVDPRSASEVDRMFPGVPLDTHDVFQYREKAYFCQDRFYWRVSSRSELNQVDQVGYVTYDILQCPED

Consider `CC(C)[C@H](NC(=O)[C@H](CC(=O)O)NC(=O)[C@@H]1CCCN1C(=O)[C@H](CC(N)=O)NC(=O)CNC(=O)[C@H](CS)NC(=O)[C@H](CCCNC(=N)N)NC(=O)[C@@H]1CCCN1)C(=O)N[C@@H](C)C(=O)N[C@@H](CC(N)=O)C(=O)N[C@@H](Cc1ccc(O)cc1)C(=O)N[C@@H](CC(N)=O)C(=O)N[C@@H](Cc1ccccc1)C(=O)N[C@@H](Cc1ccccc1)C(=O)N1CCC[C@H]1C(=O)N[C@@H](CCCNC(=N)N)C(=O)N[C@@H](CCCCN)C(=O)N1CCC[C@H]1C(=O)N[C@@H](CCCCN)C(=O)O` [Peptide 19-mer], for which the “Percent Neutrophil Migration exp. 1” value worked out at 32% with neutrophils (1 μg/mL), 22% in the data set with neutrophils (10 μg/mL), 29% with neutrophils (100 μg/mL) and 23% with neutrophils (1 mg/mL). The “Percent Neutrophil Migration exp. 2” value in the data set on neutrophils (100 μg/mL) is recorded as 0%; in the data set on neutrophils (1 mg/mL), 4%. Also, the “effect on neutrophil migration” value in the data set on neutrophils (1 mg/mL to 1 μg/mL) is listed as “did not have an effect on neutrophil migration”. Further, the total average viability with EpiDerm skin model stood at 97.6%. Further, the “inhibition of conversion of pro-MMP-9 into prodomain and active enzyme (splicing)” value against pro-MMP-9 is listed as “prevents the activation; also recorded: inhibited in a dose dependent manner”.
